Experimental data reported in US20100266604A1, “USE OF TAM RECEPTOR INHIBITORS AS IMMUNOENHANCERS AND TAM ACTIVATORS AS IMMUNOSUPPRESSORS” (The Salk Institute for Biological Studies, priority 2007, published 2010).

Tests used:
Format in all cases: cell-based, mouse
[1] = tested on: p38 and ERK1/2 phosphorylation in BM-DCs; experiment: Immunoblot of TLR-induced MAP kinase activation (phospho-p38, phospho-ERK1/2)
Description: (§1) Splenic DCs (1×10^6 cells/ml) or BM-DCs (5×10^6 cells/ml) were cultured in serum-free medium and treated with the indicated concentrations of murine recombinant Gas6, murine recombinant Protein S, the TLR ligands indicated above, recombinant mouse IFNα (PBL Biomedical laboratories), recombinant mouse Axl-FC chimera (R&D), cyclohexamide (Sigma) or Actinomycin D (Sigma). Whole cell lysates and RNA extraction were performed as indicated below.
(§2) DCs were washed in PBS and harvested in NuPage LDS sample buffer (Invitrogen) with 100 μM DTT. Whole cell lysates were resolved by electrophoresis, proteins were transferred to a PVDF membrane (Immobilon P, Millipore), blocked in 3% BSA/TBS-Tween-20 and probed with the indicated antibodies. For fluorescent western blotting with the Odyssey system, proteins were transferred to an Immobilon-FL PVDF membrane (Millipore) and incubated with two primary antibodies in 0.1% casein/PBS-Tween-20. Following incubation with fluorescence-labeled secondary antibodies, membranes were scanned with the Odyssey imaging system (LI-COR).

DCs = experiment: DC viability after Gas6 treatment
[2] = tested on: IκBα and IκBβ degradation (NF-κB pathway) in BM-DCs; experiment: Quantitative Li-Cor Odyssey Western blot of TLR-induced IκB degradation
Description: as §1, §2

[3] = tested on: IRF-7 and IFI-204 mRNA in DCs; experiment: Q-PCR of IRF-7 and IFI-204 mRNA in DCs; conditions: BM-DCs, addition of Gas6 alone
Description: as §1
(§3) After stimulation, cells were harvested, and total RNA was isolated using the RNeasy mini kit (Qiagen). Reverse transcription was performed according to manufacturer instructions with RT Superscript III (Invitrogen). PCR reactions were performed on an ABI Prism 7700 Sequence Detection System using SYBRGreen PCR master mix (Applied Biosystems). Each reaction was normalized against the expression of β-actin or GAPDH. Analyses of dissociation curves were performed with SDS software (Applied Biosystems) to ensure the absence of nonspecific amplification. Q-PCR primers used herein are listed below.

[4] = tested on: SOCS1 and SOCS3 mRNA in DCs; experiment: Q-PCR of SOCS1 and SOCS3 mRNA in DCs
Description: as §1, §3

[5] = tested on: IRAK-M, SHIP, ATF-3, IRF-4, Triad3A and Tollip mRNA in BM-DCs; experiment: Q-PCR of other negative regulators of TLR signaling; conditions: following TAM receptor activation with 50 nM Gas6
Description: as §1, §3

[6] = tested on: TLR-induced cytokine production in DCs; experiment: DC activation assay: TLR-induced cytokine production (ELISA / ISRE luciferase reporter)
Description: Splenic DC or BM-DCs (1×10^6 cells/ml) were cultured overnight in serum-free medium (StemSpan, StemCell Technologies Inc.) in the presence of the indicated concentrations of LPS from Salmonella minnesota R595 Re (Alexis), CpG-ODN 1668 (TCCATGACGTTCCGATGCT; SEQ ID NO: 19; Integrated DNA Technologies) or Poly I:C (InvivoGen) alone or in the presence of murine recombinant Gas6 (R&D Systems) or murine recombinant Protein S (produced as described in Prasad et al., (2006) Mol Cell Neurosci 33:96-108). Cytokine production was quantified in cell-free supernatants by ELISA (ebioscience for IL-12, IL-6 and TNFα and PBL-biomedical for IFNα) or by a luciferase assay using a cell line containing an ISRE-responsive element luciferase reporter construct for Type I IFN (Jiang et al., (2005) Nat Immunol 6:565-570).

[7] = tested on: phospho-STAT1 (Y701), phospho-STAT2, phospho-STAT3 in DCs; experiment: Immunoblot of STAT phosphorylation in DCs
Description: as §1, §2

[8] = tested on: TRAF6 and TRAF3 polyubiquitylation in BM-DCs; experiment: Ubiquitylation assay of TRAF6 and TRAF3; conditions: 30 minutes LPS, 2-hour prior incubation with Gas6
Description: For ubiquitylation assays, 5×10^6 BM-DCs per condition were harvested in PBS containing 1% SDS and boiled for 5 minutes. PBS containing 1% Triton X-100, 1 mM DTT, 1 mM Na3VO4, 5 mM NaF and protease inhibitors (Complete, Roche) was added and the mixture was sonicated. Lysates were precleared for 1 hour by incubation with Immobilized rProteinA (RepliGen) and incubated overnight with primary antibody at 4° C. Immobilized rProteinA was added for the last 2 hours. The immunoprecipitates were washed in PBS containing 0.2% NP-40 and 0.5 M LiCl and resuspended and boiled in NuPage LDS sample buffer (Invitrogen) with 100 μM DTT.

[9] = poly I:C, prior treatment with Gas6

CpG-induced phosphorylation of p38 and ERK1/2 ([1]; 1 μM CpG, 2-hour prior incubation with ligand): completely blocked
activation of p38 and ERK1/2 as a consequence of TLR4 ligation ([1]; LPS, prior incubation with Gas6): inhibited
Activation of the MAP kinase pathway by TLR3 [1, 9]: inhibited
LPS-induced production of IL-6 ([6]; Ifnar−/− DCs, Gas6): unable to inhibit
expression of IL6 triggered by LPS or CpG ([6]; STAT1−/− DCs, 50 nM Gas6, 15 hours): not inhibited
poly I:C-induced Type I IFN ([6]; TLR3 activated by poly I:C, 15 hours, 50 nM Gas6): comparable Gas6-mediated inhibition
LPS-induced IL6 and TNFα production ([6]; TLR4 activated by LPS, 15 hours, 50 nM Gas6): comparable Gas6-mediated inhibition
TLR9-induced production of Type I IFNs, IL6, and TNFα ([6]; wild-type DCs, overnight (15 hours) co-incubation with CpG, 50 nM Gas6): substantially inhibited
Substance: Gas6: murine recombinant Gas6 (R&D Systems), TAM receptor ligand/agonist
DC viability (DCs): unaffected
CpG-induced degradation of IκBα and IκBβ ([2]; BM-DCs, prior incubation with ligand): completely blocked
kinetics and magnitude of CpG-induced degradation of IκBα and IκBβ ([2]; in the presence of cycloheximide or actinomycin D): the same, irrespective of the presence or absence of Gas6
Activation of the NF-κB pathway by TLR3 [2, 9]: inhibited
induction of IRF-7 and IFI-204 [3]: not induced
SOCS3 mRNA peak expression ([4]; BM-DCs, 50 nM Gas6, around 90 minutes): approximately 10 fold
SOCS1 expression ([4]; Ifnar−/− DCs, Gas6): unable to up-regulate
Gas6-mediated induction of SOCS1 mRNA ([4]; STAT1−/− DCs): completely abolished
Gas6 induction of SOCS3 mRNA ([4]; STAT1−/− DCs): substantially reduced
SOCS1 mRNA expression increase ([4]; WT BM-DCs, 50 nM Gas6, 120 minutes): approximately 10 fold
induction of IRAK-M, SHIP, ATF-3, IRF-4, Triad3A, Tollip mRNAs [5]: none of these mRNAs displayed significant induction
activation of STAT2 and 3 ([7]; DC cultures, addition of Gas6): not detected
STAT1 tyrosine phosphorylation ([7]; Ifnar−/− BM-DCs, Gas6 application): incapable of activating STAT1
STAT1 activation (phospho-STAT1 Y701) ([7]; TAM triple mutant DCs, Gas6): not seen
STAT1 activation (phospho-STAT1 Y701) ([7]; wild-type DCs, incubation with Gas6): activated
LPS-induced polyubiquitylation of TRAF6 and TRAF3 [8]: potently inhibited
